Assay: mn = molality of the nth substance listed, in mol/kg
Settings: 101 kPa, Liquid; for viscosity: Capillary tube (Ostwald / Ubbelohde) method; for mass density: Vibrating tube method

NC(=O)c1ccccc1O [2-hydroxybenzamide] + C[S+](C)[O-]
Settings | mass density [kg/m3] | viscosity [mPa·s]
293.15 K, m1 = 0.0069 | 1100.6 | 2.276
293.15 K, m1 = 0.0091 | 1100.66 | 2.279
293.15 K, m1 = 0.0114 | 1100.72 | 2.282
293.15 K, m1 = 0.0137 | 1100.78 | 2.285
293.15 K, m1 = 0.016 | 1100.83 | 2.287
293.15 K, m1 = 0.0183 | 1100.86 | 2.289
293.15 K, m1 = 0.0229 | 1100.92 | 2.294
298.15 K, m1 = 0.0069 | 1095.59 | 2.034
298.15 K, m1 = 0.0091 | 1095.64 | 2.038
298.15 K, m1 = 0.0114 | 1095.68 | 2.042
298.15 K, m1 = 0.0137 | 1095.71 | 2.045
298.15 K, m1 = 0.016 | 1095.76 | 2.048
298.15 K, m1 = 0.0183 | 1095.79 | 2.051
298.15 K, m1 = 0.0229 | 1095.8 | 2.056
303.15 K, m1 = 0.0069 | 1090.56 | 1.881
303.15 K, m1 = 0.0091 | 1090.6 | 1.884
303.15 K, m1 = 0.0114 | 1090.63 | 1.887
303.15 K, m1 = 0.0137 | 1090.66 | 1.889
303.15 K, m1 = 0.016 | 1090.69 | 1.892
303.15 K, m1 = 0.0183 | 1090.7 | 1.894
303.15 K, m1 = 0.0229 | 1090.73 | 1.899
308.15 K, m1 = 0.0069 | 1085.51 | 1.732
308.15 K, m1 = 0.0091 | 1085.56 | 1.737
308.15 K, m1 = 0.0114 | 1085.59 | 1.742
308.15 K, m1 = 0.0137 | 1085.63 | 1.747
308.15 K, m1 = 0.016 | 1085.66 | 1.752
308.15 K, m1 = 0.0183 | 1085.69 | 1.756
308.15 K, m1 = 0.0229 | 1085.72 | 1.763
310.15 K, m1 = 0.0069 | 1083.5 | 1.644
310.15 K, m1 = 0.0091 | 1083.55 | 1.645
310.15 K, m1 = 0.0114 | 1083.58 | 1.646
310.15 K, m1 = 0.0137 | 1083.6 | 1.647
310.15 K, m1 = 0.016 | 1083.62 | 1.647
310.15 K, m1 = 0.0183 | 1083.65 | 1.648
310.15 K, m1 = 0.0229 | 1083.66 | 1.649
313.15 K, m1 = 0.0069 | 1080.47 | 1.563
313.15 K, m1 = 0.0091 | 1080.52 | 1.564
313.15 K, m1 = 0.0114 | 1080.55 | 1.565
313.15 K, m1 = 0.0137 | 1080.58 | 1.566
313.15 K, m1 = 0.016 | 1080.6 | 1.567
313.15 K, m1 = 0.0183 | 1080.62 | 1.567
313.15 K, m1 = 0.0229 | 1080.64 | 1.569
